Results as given in PMC10319141, “Imidazoquinolines with improved pharmacokinetic properties induce a high IFNα to TNFα ratio in vitro and in vivo” (Frontiers in Immunology, 2023).
Read-outs that look alike come from different tables or passages of the source.

What was measured:
human TLR8 = molecular target: T1, human TLR8 (Homo sapiens, UniProt Q9NR97); assay: HEK-Blue hTLR8 SEAP reporter assay; type: cell-based; settings: for TLR8 activity rel. to assay max: average maximal SEAP secretion relative to maximum secretion observed in the assay; for SEAP secretion from HEK-Blue hTLR-8: in words
T1 construct: host or cells: HEK blue hTLR8 reporter cells
T1 sequence (Q9NR97 27-1041): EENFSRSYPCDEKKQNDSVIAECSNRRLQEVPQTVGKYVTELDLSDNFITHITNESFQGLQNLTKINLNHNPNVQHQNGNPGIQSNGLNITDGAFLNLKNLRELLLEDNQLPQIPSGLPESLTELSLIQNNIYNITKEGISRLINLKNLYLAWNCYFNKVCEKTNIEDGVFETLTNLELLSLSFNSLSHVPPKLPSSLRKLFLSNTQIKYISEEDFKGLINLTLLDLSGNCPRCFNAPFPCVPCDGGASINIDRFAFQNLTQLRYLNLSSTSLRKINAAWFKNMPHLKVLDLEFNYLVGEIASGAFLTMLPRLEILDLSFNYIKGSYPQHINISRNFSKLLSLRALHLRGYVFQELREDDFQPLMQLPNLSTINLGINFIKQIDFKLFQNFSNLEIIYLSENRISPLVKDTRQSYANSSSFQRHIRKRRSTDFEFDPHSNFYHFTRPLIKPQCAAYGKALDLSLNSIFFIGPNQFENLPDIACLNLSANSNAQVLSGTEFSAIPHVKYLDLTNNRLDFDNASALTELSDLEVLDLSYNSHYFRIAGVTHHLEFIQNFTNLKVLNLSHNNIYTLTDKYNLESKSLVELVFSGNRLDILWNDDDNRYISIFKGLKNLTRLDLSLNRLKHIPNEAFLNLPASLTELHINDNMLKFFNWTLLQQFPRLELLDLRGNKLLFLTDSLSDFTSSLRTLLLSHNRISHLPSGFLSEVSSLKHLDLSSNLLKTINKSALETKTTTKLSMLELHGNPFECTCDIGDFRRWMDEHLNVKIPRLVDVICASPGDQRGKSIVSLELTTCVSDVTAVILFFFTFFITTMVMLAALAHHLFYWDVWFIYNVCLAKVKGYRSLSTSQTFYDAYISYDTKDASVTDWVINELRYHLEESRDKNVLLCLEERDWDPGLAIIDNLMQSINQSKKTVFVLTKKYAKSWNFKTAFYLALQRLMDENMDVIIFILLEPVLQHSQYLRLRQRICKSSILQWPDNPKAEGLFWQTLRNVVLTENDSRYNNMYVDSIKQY
Method: HEK blue hTLR7 or hTLR8 reporter cells (Invivogen) were cultivated in DMEM High Glucose (Biowest) according to the manufacturer’s instructions. Cells were treated with test compounds and controls at various concentrations in serum-free DMEM and incubated at 37°C, 5% CO2 for 24 h before supernatants were collected.
Relative secreted embryonic alkaline phosphatase (SEAP) activity in the supernatants was determined by quantification of para-Nitrophenyl Phosphate (pNPP)-turnover. Supernatants were diluted 10-fold in a solution containing 1 mM MgCl2, 1 M diethanolamine and 1 mg/mL pNPP and incubated at RT for 15 min before the reaction was stopped by the addition of 0.25 volumes of 1 M NaOH. Absorbance was measured at 405 nm on a Versamax microplate reader (Molecular Devices) and normalized to the mean of >5 solvent controls.
To obtain reliable estimates, replicate measurements of a minimum of 2 experiments were normalized to the maximal SEAP activity of a compound in a given experiment and pooled before fitting a non-linear function to the data.

[1] = Compound concentrations in organs after activity-adjusted s.c. doses (Figure 5B); type: in vivo, C57BL/6 mice; settings: 3 µmol/kg s.c., 8 h post compound application; for concentration at 8 h: female, C57BL/6, mouse, sc
Method: All samples were extracted with 3 or 6 volumes acetonitrile containing terbuthylazine as an internal standard (ACN) relative to either sample weight or volume. Liquid samples (plasma, culture medium, cell suspensions in stability experiments) were diluted in either 3 (culture medium, cell suspensions) or 6 (plasma) volumes ACN, pellet and blood samples were extracted by addition of ACN followed by sonication for 5 min. Organ samples were digested with 0.5 µg/mg Proteinase K (Genaxxon) for 1 h at 50°C before being homogenized using a Fastprep FP-24 5G instrument (MP-Biomedicals). Homogenates were diluted with 6 volumes ACN and homogenized again. All extracts were cleared by centrifugation at ~20.000xg for 10 min at 4°C.
Quantification of analytes was performed on an Agilent 1260/1290 Infinity system fitted with an Agilent C18 Poroshell 120 column (4.6 x 50 mm, 2.7 µm) coupled to a triple quadrupole Sciex API 4000 MS/MS detector. The mobile phase was composed of water containing 0.1% formic acid (eluent A) and acetonitrile containing 0.1% formic acid (eluent B). Gradient used was: 5% B for 0.5 min, to 100% B in 4.5 min, 100% B for 2 min, to 5% B in 0.5 min, 5% for 2.5 min. MS detection parameters are listed in SI Table S1 .
Formulation. Test compounds were prepared for application in either 1% Tween 80, 9% PEG400 in ultrapure water (Biowest) (i.v., i.p., p.o. application) or 5 mM citric acid in 0.9% saline (Braun) (subcutaneous application). If compounds were administered subcutaneously, injections were carried out into the neck crease.
Collection of Samples. Mice were bled from the tail vein at various timepoints. Heparin (Sigma) or K2-EDTA (Sigma) was added to blood samples to a final […] concentration of 10-15 Unit or 5 mM. Plasma was generated by centrifugation at 6800xg for 8 min at 4°C and stored at -80°C until analyzed by ELISA or CBA. Animals were sacrificed after the indicated time points by CO2 inhalation. Heart blood and organs for compound quantification by HPLC-MS/MS were collected post mortem and stored at –20°C until extracted as described above.
Compound concentration in (A) peripheral blood collected via tail bleeding before, 15, 30 60, 120, 240, 360 and 480 min after s.c. compound application and (B) organs collected after 8 h was assessed via HPLC-MS/MS. (A, B) Data are presented as mean ± SD. (C) Levels of TNFα and IFNα as well as (D) IL6, CXCL1, CCL2, IFNβ, IFNγ and IL10 in tail plasma over time were determined via cytometric bead array. Area under the curve (AUC) of each cytokine was plotted against compound concentration.

[2] = kidney, read-out: concentration in kidney
[3] = liver, read-out: concentration in liver

| Structure (SMILES) | TLR8 activity rel. to assay max (human TLR8) | SEAP secretion from HEK-Blue hTLR-8 (human TLR8) | concentration at 8 h [1, 2] [nM] | concentration at 8 h [1, 3] [nM] | concentration in liver [1] |
| --- | --- | --- | --- | --- | --- |
| CCCCc1nc2c(N)nc3ccccc3c2n1CCC1CCNCC1 [A1] | 11% ± 8% | close to baseline | 469 | 45 | – |
| CCOCc1nc2c(N)nc3ccccc3c2n1CC(C)(C)O [RSQ, Resiquimod, reference compound] | 96% ± 4% | – | – | – | < LLOQ |
| CCCCc1nc2c(N)nc3ccccc3c2n1CC1CCN(C(=O)CN(C)CC(=O)N(C)[C@H]2C[C@@H](C)O[C@@H](O[C@@H]3[C@@H](C)[C@H](O[C@H]4C[C@@](C)(OC)[C@@H](O)[C@H](C)O4)[C@@H](C)C(=O)O[C@H](CC)[C@@](C)(O)[C@H](O)[C@@H](C)N(C)C[C@H](C)C[C@@]3(C)O)[C@@H]2O)CC1 [A2-mac] | 4% ± 1% | close to baseline | – | – | – |
| CCCCc1nc2c(N)nc3ccccc3c2n1CCC1CCN(C(=O)CN(C)CC(=O)N(C)C2CC(C)OC(OC3C(C)C(OC4CC(C)(OC)C(O)C(C)O4)C(C)C(=O)OC(CC)C(C)(O)C(O)C(C)N(C)CC(C)CC3(C)O)C2O)CC1 (stereo not drawn) [A1-mac] | 5% ± 3% | close to baseline | 2180 | 6030 | – |
